Measured values as given in ChEMBL document CHEMBL5696441 (Nat Chem Biol, 2011).
The source made the active and inactive calls. No cut-off for these calls is given here.

Test system: THP-1
Assay: Inhibition of ERK in human THP-1 cells assessed as CREB phosphorylation at Ser133 level at 4 uM preincubated for 30 mins in the presence of PMA stimulation for 1 hrs by western blot analysis
Format: cell-based

## C[S+]([O-])c1ccc(-c2nc(-c3ccc(F)cc3)c(-c3ccncc3)[nH]2)cc1 (stereo unspecified)
  inhibition: Active
